# From patent US20200216441A1, “PESTICIDALLY ACTIVE HETEROCYCLIC DERIVATIVES WITH SULFUR CONTAINING SUBSTITUENTS” (SYNGENTA PARTICIPATIONS AG, priority 2017, published 2020)
# Assays:
# [1] = tested on: Euschistus heros (Neotropical Brown Stink Bug); assay: whole plant or invertebrate; type: in vivo; conditions: 120 h, application rate of 200 ppm, N2 nymphs on sprayed soybean leaves, 5 days after infestation, read-out: effect in at least one of the two categories (mortality or growth inhibition)
# [2] = tested on: Plutella xylostella (Diamond Back Moth); assay: whole plant or invertebrate; type: in vivo; conditions: 120 h, application rate of 200 ppm, L2 larvae on treated artificial diet, 5 days after infestation, read-out: effect in at least one of the two categories (mortality or growth inhibition)
# [3] = tested on: Myzus persicae (Green Peach Aphid); assay: whole plant or invertebrate; conditions: foliar, 144 h
# [4] = tested on: Spodoptera littoralis (Egyptian Cotton Leaf Worm); assay: whole plant or invertebrate; conditions: in Gossypium barbadense, foliar, 72 h, read-out: control (mortality, anti-feeding effect, growth inhibition)
# [5] = tested on: Diabrotica Balteata (Corn Root Worm); assay: Diabrotica balteata (Corn Root Worm); conditions: in Zea mays, 96 h, read-out: effect in at least one of the two categories (mortality or growth inhibition)
# [6] = tested on: Bemisia tabaci (Cotton White Fly); conditions: in Gossypium hirsutum, foliar, 144 h
# [7] = tested on: Tetranychus urticae (Two-Spotted Spider Mite); conditions: foliar, 192 h
# [8] = tested on: Myzus persicae (Green Peach Aphid); assay: whole plant or invertebrate; type: in vivo; conditions: 144 h, test rate of 24 ppm, systemic, roots of infested pea seedlings in test solution, 6 days
Compound,melting point,percent effect (mortality or growth inhibition) at 200 ppm [1],percent effect (mortality or growth inhibition) at 200 ppm [2],mortality at 200 ppm [3],mortality at 200 ppm [4],mortality at 200 ppm [5],mortality at 200 ppm [6],mortality at 200 ppm [7],mortality at 24 ppm [8]
CCOC(=O)C(C)(C)Oc1cnc(-c2nc3cc(C(F)(F)F)ncc3n2C)c(S(=O)(=O)CC)c1,145 to 147 °C,,,,,,,,
"CCS(=O)(=O)c1cc(OC(C)(C)C(F)(F)F)cnc1-c1nc2cc(C(F)(F)F)ncc2n1C [Compound P76, 2-[3-ethylsulfonyl-5-(2,2,2-trifluoro-1,1-dimethyl-ethoxy)-2-pyridyl]-3-methyl-6-(trifluoromethyl)imidazo[4,5-c]pyridine]",,≥ 80%,≥ 80%,≥ 80%,≥ 80%,≥ 80%,≥ 80%,≥ 80%,
CCSc1cc(OC(C)(C)C(=O)O)cnc1-c1nc2cc(C(F)(F)F)ncc2n1C,161 to 163 °C,,,,,,,,
CCS(=O)(=O)c1cc(OC(SC)C(=O)OC)cnc1-c1nc2cc(C(F)(F)F)ncc2n1C (stereo not drawn),94 to 96 °C,,,,,,,,
"CCS(=O)(=O)c1cc(OC2CCC2)cnc1-c1nc2cc(C(F)(F)F)ncc2n1C [Compound P62, 2-[5-(cyclobutoxy)-3-ethylsulfonyl-2-pyridyl]-3-methyl-6-(trifluoromethyl)imidazo[4,5-c]pyridine]",,≥ 80%,≥ 80%,≥ 80%,≥ 80%,≥ 80%,≥ 80%,≥ 80%,
CCS(=O)(=O)c1cc(OC(C)(C)C(=O)O)cnc1-c1nc2cc(C(F)(F)F)ncc2n1C,242 to 244 °C,,,,,,,,
CCS(=O)(=O)c1cc(OC(SC)C(N)=O)cnc1-c1nc2cc(C(F)(F)F)ncc2n1C (stereo not drawn),142 to 144 °C,,,,,,,,
CCS(=O)(=O)c1cc(OC(C)(C)C(C)=O)cnc1-c1nc2cc(C(F)(F)F)ncc2n1C,138 to 140 °C,,,,,,,,
CCS(=O)(=O)c1cc(OC(C)C(=O)OC)cnc1-c1nc2cc(C(F)(F)F)ncc2n1C (stereo not drawn),131 to 133 °C,,,,,,,,
"CCS(=O)(=O)c1cc(OCC2(C#N)CC2)cnc1-c1nc2cc(C(F)(F)F)ncc2n1C [Compound P79, 1-[[5-ethylsulfonyl-6-[3-methyl-6-(trifluoromethyl)imidazo[4,5-c]pyridin-2-yl]-3-pyridyl]oxymethyl]cyclopropanecarbonitrile]",,≥ 80%,≥ 80%,≥ 80%,≥ 80%,≥ 80%,≥ 80%,≥ 80%,≥ 80%
"CCS(=O)(=O)c1cc(OC(C)C)cnc1-c1nc2cc(SC(F)(F)F)ncc2n1C [Compound P71, 2-(3-ethylsulfonyl-5-isopropoxy-2-pyridyl)-3-methyl-6-(trifluoromethylsulfanyl)imidazo[4,5-c]pyridine]",,≥ 80%,≥ 80%,≥ 80%,≥ 80%,≥ 80%,≥ 80%,≥ 80%,
"CCS(=O)(=O)c1cc(OC(C)(C)CC#N)cnc1-c1nc2cc(C(F)(F)F)ncc2n1C [Compound P47, 3-[[5-ethylsulfonyl-6-[3-methyl-6-(trifluoromethyl)imidazo[4,5-c]pyridin-2-yl]-3-pyridyl]oxy]-3-methyl-butanenitrile]",,≥ 80%,≥ 80%,≥ 80%,,≥ 80%,≥ 80%,≥ 80%,≥ 80%
"CCS(=O)(=O)c1cc(OC(C)(C)C)cnc1-c1nc2cc(C(F)(F)F)ncc2n1C [Compound P5, 2-(5-tert-butoxy-3-ethylsulfonyl-2-pyridyl)-3-methyl-6-(trifluoromethyl)imidazo[4,5-c]pyridine]",,≥ 80%,≥ 80%,≥ 80%,≥ 80%,≥ 80%,≥ 80%,≥ 80%,≥ 80%
